{
  "source": "patent US7105527B2",
  "about": "“N4-acylcytosine nucleosides for treatment of viral infections” (priority 2001, dated 2006)",
  "format_in_all_cases": "cell-based",
  "key": {"HIV-1NL4-3": {"test_system": "HIV-1NL4-3", "assay": "Anti-HIV assay in MT-4 cells, consensus p24 assay", "procedure": "In a second antiviral testing system, the potency of the compounds was determined by measurement of viral RNA accumulation in HIV-1RF infected MT-2 cells (Bacheler L T, Paul M, Otto M J, Jadhav P K, Stone B A & Miller J A (1994) An assay for HIV RNIn infected cell lysates, and its use for rapid evaluation of antiviral efficacy. Antivir. Chem. Chemother. 5:111–121). The virus titer was established to determine the dilution producing 15 to 30 ng/RNA per well of HIV RNIn 3 days of infection. HIV-1 RNA was quantified using biotinylated capture and alkaline phosphatase-derivatized reporter oligonucleotides as described previously (Charvet A-S, Camplo M, Faury P, Graciet J C, Mourier N, Chermann J C & Kraus J L (1994) Inhibition of human immunodeficiency virus type 1 replication by phosphonoformate- and phosphonoacetate-2′,3′-dideoxy-3′-thiacytidine conjugates. J. Med. Chem. 37:2216–2223). In a third system, the effect of analogs on the replication of HIV-1NL4-3 was determined via the InterCompany Consortium consensus p24 assay as previously described (Jadhav P K & MacKay M F (1997) Cyclic urea amide: HIV-1 protease inhibitors with low nanomolar potency against both wild types and protease inhibitor resistant mutants of HIV. J. Med. Chem. 40:181–190). Recombinant viruses were recovered by transfecting the appropriate NL4-3 plasmid by lipofection. Virus stocks recovered 7 to 10 days post-transfection were titered on MT-4 cells to determine if the dilution produced 1,000 to 3,000 ng p24 in 4 days. This dilution was then used in drug susceptibility assays, where drug was added 24 h post infection of cells, and p24 quantified by ELISA 3 days later."}, "[1]": {"test_system": "CEM (human lymphoblastoid) cells", "assay": "Cytotoxicity assay in CEM cells", "in_short": "(§1)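 Compound toxicity measured in each cell type, with cycloheximide as positive cytotoxic control and solvent-exposed untreated cells as negative control. Cytotoxicity IC50 derived from concentration-response curves by the median effective method.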"}, "HIV-1RF": {"test_system": "HIV-1RF", "assay": "Anti-HIV (in MT-2 cells) assay, viral RNA accumulation", "settings": "EC90, MT-2 cells, read-out: Anti-HIV-1 activity in different cells (EC90, μM) MT-2", "in_short": "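HIV-1RF in MT-2 cells: viral RNA quantified after 3 days of infection by biotinylated capture/alkaline phosphatase reporter oligonucleotides. HIV-1NL4-3 recombinant virus in MT-4 cells: drug added 24 h post-infection, p24 measured by ELISA 3 days later.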"}, "HIV-1LAl": {"test_system": "HIV-1LAl", "assay": "Anti-HIV (in PBM cells) assay, reverse transcriptase readout", "in_short": "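Human PBM cells infected with HIV-1; compounds diluted from DMSO stocks into growth medium, AZT as positive control. Virus in supernatant quantified day 6 post-infection by reverse transcriptase assay with (rA)n.(dT)12.18 template-primer; EC50 and EC90 from concentration-response curves by median effective method.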"}, "human PBM cells": {"test_system": "human PBM cells", "assay": "Cytotoxicity assay in PBM cells", "in_short": "as §1"}, "Vero cells": {"test_system": "Vero cells", "assay": "Cytotoxicity assay in Vero cells", "in_short": "as §1"}, "MT-2 cells": {"test_system": "MT-2 cells", "assay": "Cytotoxicity assay in MT-2 cells", "in_short": "as §1"}, "HepG2 cells": {"test_system": "HepG2 cells", "assay": "Cytotoxicity assay in HepG2 cells", "in_short": "as §1"}, "[2]": {"settings": "Table 2, read-out: Anti-HIV-1 activity in different cells (EC90, μM) MT-4"}, "[3]": {"settings": "Table 2, read-out: Cytotoxicity in different cells (IC50, μM) CEM"}, "[4]": {"settings": "Table 2, read-out: Anti-HIV-1 activity in different cells (EC90, μM) PBM"}, "[5]": {"settings": "Table 2, read-out: Cytotoxicity in different cells (IC50, μM) PBM"}, "[6]": {"settings": "Table 2, read-out: Cytotoxicity in different cells (IC50, μM) Vero"}, "[7]": {"settings": "Table 2, read-out: Cytotoxicity in different cells (IC50, μM) MT-2"}, "[8]": {"settings": "Table 2, read-out: Cytotoxicity in different cells (IC50, μM) HepG2"}},
  "note": "Where two headings read alike, the source gives them in different places.",
  "data": [
    {"smiles": "O=C(Nc1nc(=O)n([C@H]2C=C[C@@H](CO)O2)cc1F)c1cccc(Cl)c1", "note": "[Compound 40, β-D-N^4-(3-Chlorobenzoyl)-2′,3′-didehydro-2,3′-dideoxy-5-fluorocytidine]", "values": [
      {"measurement": "EC90", "setting": "HIV-1NL4-3; [2]", "result": 3.4, "unit": "µM"},
      {"measurement": "IC50", "setting": "[1]; [3]", "result": 11.2, "unit": "µM"},
      {"measurement": "EC90", "setting": "HIV-1RF; Table 2", "result": 2, "unit": "µM"},
      {"measurement": "EC90", "setting": "HIV-1LAl; [4]", "result": 1.71, "unit": "µM"},
      {"measurement": "IC50", "setting": "human PBM cells; [5]", "result": 45.3, "unit": "µM"},
      {"measurement": "IC50", "setting": "Vero cells; [6]", "result": 100, "unit": "µM"},
      {"measurement": "IC50", "setting": "MT-2 cells; [7]", "result": "> 50", "unit": "µM"},
      {"measurement": "IC50", "setting": "HepG2 cells; [8]", "result": 32.4, "unit": "µM"}
    ]},
    {"smiles": "CCc1ccc(C(=O)Nc2nc(=O)n([C@H]3C=C[C@@H](CO)O3)cc2F)cc1", "note": "[Compound 51, β-D-2′,3′-Didehydro-2′,3′-dideoxy-N^4-(4-ethyllbenzoyl)-5-fluorocytidine]", "values": [
      {"measurement": "EC90", "setting": "HIV-1NL4-3; [2]", "result": 2.3, "unit": "µM"},
      {"measurement": "IC50", "setting": "[1]; [3]", "result": 8.1, "unit": "µM"},
      {"measurement": "EC90", "setting": "HIV-1RF; Table 2", "result": 0.24, "unit": "µM"},
      {"measurement": "EC90", "setting": "HIV-1LAl; [4]", "result": 6.2, "unit": "µM"},
      {"measurement": "IC50", "setting": "human PBM cells; [5]", "result": 13, "unit": "µM"},
      {"measurement": "IC50", "setting": "Vero cells; [6]", "result": 40.3, "unit": "µM"},
      {"measurement": "IC50", "setting": "MT-2 cells; [7]", "result": "> 50", "unit": "µM"},
      {"measurement": "IC50", "setting": "HepG2 cells; [8]", "result": "> 100", "unit": "µM"}
    ]},
    {"smiles": "CCCC(=O)Nc1nc(=O)n([C@H]2C=C[C@@H](CO)O2)cc1F", "note": "[Compound 60, β-D-N^4-Butyryl-2′,3′-didehydro-2′,3′-dideoxy-5-fluorocytidine]", "values": [
      {"measurement": "EC90", "setting": "HIV-1NL4-3; [2]", "result": 3.1, "unit": "µM"},
      {"measurement": "IC50", "setting": "[1]; [3]", "result": 12.2, "unit": "µM"},
      {"measurement": "EC90", "setting": "HIV-1RF; Table 2", "result": 2.4, "unit": "µM"},
      {"measurement": "EC90", "setting": "HIV-1LAl; [4]", "result": 1.89, "unit": "µM"},
      {"measurement": "IC50", "setting": "human PBM cells; [5]", "result": 52.4, "unit": "µM"},
      {"measurement": "IC50", "setting": "Vero cells; [6]", "result": "> 100", "unit": "µM"},
      {"measurement": "IC50", "setting": "MT-2 cells; [7]", "result": "> 50", "unit": "µM"},
      {"measurement": "IC50", "setting": "HepG2 cells; [8]", "result": "> 100", "unit": "µM"}
    ]},
    {"smiles": "O=C(Nc1nc(=O)n([C@H]2C=C[C@@H](CO)O2)cc1F)c1cccc(F)c1", "note": "[Compound 39, β-D-2′,3′-Didehydro-2′,3′-dideoxy-5-fluoro-N^4-(3-fluorobenzoyl)cytidine]", "values": [
      {"measurement": "EC90", "setting": "HIV-1NL4-3; [2]", "result": 3.1, "unit": "µM"},
      {"measurement": "IC50", "setting": "[1]; [3]", "result": 4.2, "unit": "µM"},
      {"measurement": "EC90", "setting": "HIV-1RF; Table 2", "result": 1, "unit": "µM"},
      {"measurement": "EC90", "setting": "HIV-1LAl; [4]", "result": 7.82, "unit": "µM"},
      {"measurement": "IC50", "setting": "human PBM cells; [5]", "result": 45.3, "unit": "µM"},
      {"measurement": "IC50", "setting": "Vero cells; [6]", "result": "> 100", "unit": "µM"},
      {"measurement": "IC50", "setting": "MT-2 cells; [7]", "result": "> 50", "unit": "µM"},
      {"measurement": "IC50", "setting": "HepG2 cells; [8]", "result": "> 100", "unit": "µM"}
    ]},
    {"smiles": "CC(C)(C)c1ccc(C(=O)Nc2nc(=O)n([C@H]3C=C[C@@H](CO)O3)cc2F)cc1", "note": "[Compound 53, β-D-N^4-(4-tert-Butylbenzoyl)-2′,3′-didehydro-2′,3′-dideoxy-5-fluorocytidine]", "values": [
      {"measurement": "EC90", "setting": "HIV-1NL4-3; [2]", "result": 1.1, "unit": "µM"},
      {"measurement": "IC50", "setting": "[1]; [3]", "result": 9.9, "unit": "µM"},
      {"measurement": "EC90", "setting": "HIV-1RF; Table 2", "result": 0.13, "unit": "µM"},
      {"measurement": "EC90", "setting": "HIV-1LAl; [4]", "result": 0.41, "unit": "µM"},
      {"measurement": "IC50", "setting": "human PBM cells; [5]", "result": 5, "unit": "µM"},
      {"measurement": "IC50", "setting": "Vero cells; [6]", "result": 59.2, "unit": "µM"},
      {"measurement": "IC50", "setting": "MT-2 cells; [7]", "result": "> 50", "unit": "µM"},
      {"measurement": "IC50", "setting": "HepG2 cells; [8]", "result": "> 100", "unit": "µM"}
    ]},
    {"smiles": "Nc1nc(=O)n([C@H]2C=C[C@@H](CO)O2)cc1F", "note": "[D-D4FC, β-D-2′,3′-Dideoxy-2′,3′-didehydro-5-fluorocytidine, reference compound]", "values": [
      {"measurement": "EC90", "setting": "HIV-1NL4-3; [2]", "result": 1.15, "unit": "µM"},
      {"measurement": "IC50", "setting": "[1]; [3]", "result": "> 100", "unit": "µM"},
      {"measurement": "EC90", "setting": "HIV-1RF; Table 2", "result": 1.19, "unit": "µM"},
      {"measurement": "EC90", "setting": "HIV-1LAl; [4]", "result": 0.77, "unit": "µM"},
      {"measurement": "IC50", "setting": "human PBM cells; [5]", "result": "> 100", "unit": "µM"},
      {"measurement": "IC50", "setting": "Vero cells; [6]", "result": "> 100", "unit": "µM"},
      {"measurement": "IC50", "setting": "MT-2 cells; [7]", "result": "> 50", "unit": "µM"},
      {"measurement": "IC50", "setting": "HepG2 cells; [8]", "result": "> 100", "unit": "µM"}
    ]},
    {"smiles": "O=C(Nc1nc(=O)n([C@H]2CC[C@@H](CO)O2)cc1F)c1cccc([N+](=O)[O-])c1", "note": "[Compound 19, β-D-2′,3′-Dideoxy-S-fluoro-N-(3-nitrobenzoyl)cytidine]", "values": [
      {"measurement": "EC90", "setting": "HIV-1NL4-3; Table 1, read-out: Anti-HIV-1 activity in different cells (EC90, μM) MT-4", "result": 1.59, "unit": "µM"},
      {"measurement": "IC50", "setting": "[1]; Table 1, read-out: Cytotoxicity in different cells (IC50, μM) CEM", "result": "> 100", "unit": "µM"},
      {"measurement": "EC90", "setting": "HIV-1RF; Table 1", "result": 1.8, "unit": "µM"},
      {"measurement": "EC90", "setting": "HIV-1LAl; Table 1, read-out: Anti-HIV-1 activity in different cells (EC90, μM) PBM", "result": 1.6, "unit": "µM"},
      {"measurement": "IC50", "setting": "human PBM cells; Table 1, read-out: Cytotoxicity in different cells (IC50, μM) PBM", "result": "> 100", "unit": "µM"},
      {"measurement": "IC50", "setting": "Vero cells; Table 1, read-out: Cytotoxicity in different cells (IC50, μM) Vero", "result": "> 100", "unit": "µM"},
      {"measurement": "IC50", "setting": "MT-2 cells; Table 1, read-out: Cytotoxicity in different cells (IC50, μM) MT-2", "result": "> 50", "unit": "µM"},
      {"measurement": "IC50", "setting": "HepG2 cells; Table 1, read-out: Cytotoxicity in different cells (IC50, μM) HepG2", "result": "> 100", "unit": "µM"}
    ]}
  ]
}
